Measured values taken from patent publication US20220409510A1, “Polypeptides And Methods For Improving Skin Conditions” (Interk Peptide Therapeutics Limited, priority 2018, published 2022).

Tests used:
primary keratinocytes = assay: ATP levels in primary keratinocytes exposed to ssUV (CellTiter-Glo 2.0 Assay); format: cell-based; settings: 1.5 hours after UVR, FIG. 4
Protocol: The influence of the polypeptide IK34720 (SEQ ID NO: 3) on intracellular ATP following UV exposure was assessed using the following protocol.
Primary keratinocytes were harvested as described above in Example 2 and were either exposed to ssUV-irradiation (UVR), as described above in Example 2 or not irradiated (SHAM), in the presence or absence of Calcitriol (positive control) or polypeptide IK34720 (SEQ ID NO: 3; RSKAKNPLYRRRRRRRRR), at the concentrations described in Example 2.
ATP levels were determined 1.5 hours after UVR using the CellTiter-Glo® 2.0 Assay (Promega, Wis., USA) as described previously (Rybchyn et al., vide supra, 2017). All data in FIG. 4 is shown as mean±SD. *p<0.05, **p<0.01. Cells were prepared and irradiated as described above.

[1] = tested on: Cyclobutane pyrimidine dimers (CPDs) in primary keratinocytes; assay: CPD detection by IHC in keratinocytes after UV-irradiation in vitro; format: cell-based
Protocol: An in vitro assay was conducted allowing for densitometry analysis of CPD detection by IHC in keratinocytes 3 h following UV-irradiation in accordance with the following protocol.
Keratinocytes were harvested and cultured as described above at Example 2. Samples were split into two groups, being UV irradiated (UVR) and non-UV irradiated (SHAM). UV-irradiation was performed by solar simulated UV-irradiation for cells, also as described above at Example 2. Irradiation solution was PBS containing 5 mM D-glucose. […]
Harvested keratinocytes were plated on poly-D-lysine coated coverslips in 96 well plates and irradiated (or sham treated) as described above in at Example 2 in PBS containing 5 mM D-glucose. Keratinocytes were fixed 3 h after UV-irradiation. Immunohistochemistry and image analysis were performed as described previously (Gordon-Thomson et al., Photochem Photobiol Sci, 2012, 11(12):1837-47; Gupta et al., vide supra, Rybchyn MS et al., J Invest Dermatol, 2018;138(5):1146-1156). Thymine dimers were detected using the anti-thymine dimer antibody (Sigma-Aldrich, Mo., USA) at 10 μg/mL, and quantified as an index of CPD, as previously described (Douki T and Cadet J, Biochemistry,2001, 40(8):2495-501).

[2] = tested on: CPD formation in the skin; assay: CPD formation in the skin of mice after acute UV-irradiation; format: in vivo, Skh:hr1 hairless mice; settings: topical immediately after UVR, doses as Example 4; 3 hours post-UVR; vs vehicle
Protocol: Female Skh:hr1 hairless mice were exposed to solar simulated UV-irradiation as described above at Example 4. Immediately after irradiation mice were treated topically on the dorsal surface also as described in Example 4. Subsequently, skin was fixed at 3 hours post-UVR, and subjected to immuno-histochemical staining using the antibody directed against thymine dimers (CPD) described above at 10 μg/ml. […] In FIG. 9, dark staining in nuclei indicates the presence of thymine dimers (CPD), and the % area stained is presented. Immunohistology was quantified as per Example 4.

[3] = biological target: T1, Human rheumatoid synovial fibroblast MMP-1 (Homo sapiens, UniProt P03956); assay: MMP-1 activity in vitro (fluorogenic substrate); format: biochemical; settings: 5, 10, 800 and 1000 μM; 8 nM activated enzyme; pH 7.2; FIG. 16
T1 construct: endogenous in cells; host or cells: human rheumatoid synovial fibroblasts (native proenzyme isolated from these cells)
T1 sequence (P03956 100-469): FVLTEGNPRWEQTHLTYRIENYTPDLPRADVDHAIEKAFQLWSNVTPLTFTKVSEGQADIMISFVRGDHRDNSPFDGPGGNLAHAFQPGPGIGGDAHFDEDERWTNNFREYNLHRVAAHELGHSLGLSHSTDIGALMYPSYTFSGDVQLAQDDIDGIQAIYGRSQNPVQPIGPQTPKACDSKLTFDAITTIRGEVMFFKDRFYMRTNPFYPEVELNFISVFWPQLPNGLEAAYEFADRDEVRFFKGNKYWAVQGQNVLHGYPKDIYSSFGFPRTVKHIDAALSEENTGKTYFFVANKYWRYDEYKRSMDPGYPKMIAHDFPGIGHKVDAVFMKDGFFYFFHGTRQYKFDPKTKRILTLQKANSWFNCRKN
Protocol: The effect of the polypeptide IK34720 (SEQ ID NO: 3) on MMP-1 activity was evaluated using the following protocol.
Human rheumatoid synovial fibroblast MMP-1 proenzyme, activated with APMA for 60 minutes at 37° C., was used as an active enzyme. The polypeptide IK34720 (SEQ ID NO: 3) at a concentration of 5 μM. 10 μM 800 μM and 1000 μM was pre-incubated with 8 nM activated enzyme in modified MOPS buffer pH 7.2 for 60 minutes at 37° C. The reaction was initiated by addition of […] Mca-Pro-Leu-Gly-Leu-Dap-Ala-Arg followed by a 2 hour incubation period. Determination of the amount of Mca-Pro-Leu-Gly formed was read spectrofluorimetrically at 340 nm/400 nm.

dermal fibroblasts = assay: TBARS lipid peroxidation assay in UV irradiated dermal fibroblasts; format: cell-based; settings: highest concentration (5 μM) of peptide; FIG. 19
Protocol: The ability of the polypeptide RSKAKNPLYRRRRRRRRR to alter UV-induced oxidative damage of cell-derived lipids was examined using the TBARS thiobarbituric acid-reactive substances (TBARS) lipid peroxidation assay.
After irradiation or sham-irradiation of dermal fibroblasts, supernatants (900 μL) were collected. In brief, 90 μL of butylated hydroxytoluene (2% w/w in ethanol) was added and samples kept frozen (−20° C.) until the TBARS assay. Petri dishes were washed twice with 1 mL of HBSS, cells scraped in 600 μL of water and 60 μL of 0.5% aqueous Triton X100 added to this solution, for protein determination carried out by the Lowry method (Lowry OH et al, J. Biol. Chem., 1951, 193:265-275). TBARS were fluorometrically assayed as described (Morlière P et al, Biochim. Biophys. Acta, 1991, 1084:261-268). Briefly, thawing samples were heated in the presence of thiobarbituric acid in acidic conditions, and TBARS extracted with 1-butanol and fluorometrically quantified (λexc=515 nm and λem=550 nm). Tetraethoxypropane, which quantitatively yields the malondialdehyde-thiobarbituric acid adduct in the assay conditions, was used for calibration. TBARS values, expressed in malondialdehyde (MDA) equivalents, were normalized to the cell protein for each Petri dish. Each TBARS determination was performed in triplicate (e.g., with three Petri dishes per data point).

RSKAKNPLYRRRRRRRRR [IK34720, 18-residue polypeptide: … with a C-terminal polyarginine region of 8 arginines]
ATP levels (primary keratinocytes): enhanced the ATP levels | CPD levels vs keratinocytes treated with Calcitriol ([1]; 5 μM, 3 h after UV): comparable reduction in CPD levels | CPD levels vs vehicle-treated UV-irradiated keratinocytes ([1]; 5 μM, 3 h after UV): statistically significant (*p<0.05) reduction in CPD levels | CPD formation (average intensity of CPD staining) vs positive control ([1]; 10 uM, FIG. 8B): more effective at inhibiting CPD formation than the positive control 1,25 D | CPD levels ([1]; 0.5, 1, 2.5 or 5 μM after ssUV, keratinocytes fixed 3 h after UV, FIGS. 7 and 8): decreases CPD levels in primary keratinocytes exposed to solar simulated UV-irradiation in a dose dependent manner | CPD formation in the skin (CPD nuclei) [2]: inhibits CPD formation | MMP-1 activity [3]: inhibits MMP-1 activation in a dose dependent manner | significant difference in TRS (TBA reactive substances) between Sham and UV irradiation (dermal fibroblasts): not seen
